Assay results: ChEMBL document CHEMBL5120938, “Development of BET Inhibitors as Potential Treatments for Cancer: Optimization of Pharmacokinetic Properties” (ACS Med Chem Lett, 2022)
Blank lines part the entries; values can stand above or below the compound they belong to.

Assays:
[1] = molecular target: Bromodomain-containing protein 4 (Homo sapiens, UniProt O60885); assay: Inhibition of N-terminal His6-tagged recombinant human BRD4 (44 to 168 residues) expressed in Escherichia coli BL21 (DE3) incubated for 60 mins by TR-FRET assay
[2] = Inhibition of c-MYC expression in human JJN-3R cells measured after 4 hrs; format: functional, cell-based
[3] = Antiproliferative activity against human JJN-3R cells assessed as inhibition of cell proliferation measured after 72 hrs by MTS assay; format: functional, cell-based
[4] = Metabolic stability in alamethicin treated human liver microsomes assessed as half life pretreated for 5 mins followed by NADPH addition and measured up to 45 mins by LC-MS/MS analysis; format: ADME, Microsome; settings: time < 50 min
[5] = Metabolic stability in alamethicin treated Sprague-Dawley rat liver microsomes assessed as half life pretreated for 5 mins followed by NADPH addition and measured up to 45 mins by LC-MS/MS analysis; format: ADME, Microsome; settings: time < 50 min
[6] = Metabolic stability in alamethicin treated CD-1 mouse liver microsomes assessed as half life pretreated for 5 mins followed by NADPH addition and measured up to 45 mins by LC-MS/MS analysis; format: ADME, Microsome; settings: time < 50 min
[7] = Metabolic stability in alamethicin treated Beagle dog liver microsomes assessed as half life pretreated for 5 mins followed by NADPH addition and measured up to 45 mins by LC-MS/MS analysis; format: ADME, Canis lupus familiaris, Microsome; settings: time < 50 min
[8] = Metabolic stability in alamethicin treated cynomologus monkey liver microsomes assessed as half life pretreated for 5 mins followed by NADPH addition and measured up to 45 mins by LC-MS/MS analysis; format: ADME, Macaca fascicularis, Microsome; settings: cynomolgus monkey, time < 50 min
[9] = Metabolic stability in alamethicin treated human liver microsomes assessed as half life pretreated for 5 mins followed by UDPGA addition and measured up to 45 mins by LC-MS/MS analysis; format: ADME, Microsome; settings: time < 50 min
[10] = Metabolic stability in alamethicin treated Sprague-Dawley rat liver microsomes assessed as half life pretreated for 5 mins followed by UDPGA addition and measured up to 45 mins by LC-MS/MS analysis; format: ADME, Microsome; settings: time < 50 min
[11] = Metabolic stability in alamethicin treated CD-1 mouse liver microsomes assessed as half life pretreated for 5 mins followed by UDPGA addition and measured up to 45 mins by LC-MS/MS analysis; format: ADME, Microsome; settings: time < 50 min
[12] = Metabolic stability in alamethicin treated Beagle dog liver microsomes assessed as half life pretreated for 5 mins followed by UDPGA addition and measured up to 45 mins by LC-MS/MS analysis; format: ADME, Canis lupus familiaris, Microsome; settings: for half-life: Beagle, liver microsomes, time < 50 min
[13] = Metabolic stability in alamethicin treated cynomologus monkey liver microsomes assessed as half life pretreated for 5 mins followed by UDPGA addition and measured up to 45 mins by LC-MS/MS analysis; format: ADME, Macaca fascicularis, Microsome; settings: cynomolgus monkey, time < 50 min
[14] = Efflux ratio of apparent permeability across […] in human Caco-2 cells after 2 hrs by liquid scintillation counting analysis; format: ADME, cell-based; settings: caco-2, 2 h
[15] = Drug metabolism in human hepatocytes assessed as glucuronidation of the compound at 5 uM measured after 1 hr by LC/UV/MS analysis; format: ADME, cell-based, Hepatocyte
[16] = Drug metabolism in human hepatocytes assessed as oxidative metabolite formation at 5 uM measured after 1 hr by LC/UV/MS analysis; format: ADME, cell-based, Hepatocyte
[17] = Volume of distribution in mouse at 5 mg/kg, po or 1.75 mg/kg, iv; format: ADME, organism-based; settings: in vivo
[18] = Half life in mouse at 1.75 mg/kg, iv; format: ADME, organism-based; settings: in vivo
[19] = AUC in mouse at 5 mg/kg, po; format: ADME, organism-based; design: dose 5 mg/kg, route po; settings: in vivo
[20] = Volume of distribution in rat at 5 mg/kg, po or 1 mg/kg, iv; format: ADME, organism-based; settings: in vivo
[21] = AUC in rat at 5 mg/kg, po; format: ADME, organism-based; design: dose 5 mg/kg, route po; settings: in vivo
[22] = Volume of distribution in dog at 0.3 mg/kg, po or 0.1 mg/kg, iv; format: ADME, organism-based, Canis lupus familiaris; settings: in vivo
[23] = Oral bioavailability in dog at 0.3 mg/kg; format: ADME, organism-based, Canis lupus familiaris; settings: in vivo
[24] = AUC in dog at 0.3 mg/kg, po; format: ADME, organism-based, Canis lupus familiaris; design: dose 0.3 mg/kg, route po; settings: in vivo
[25] = Volume of distribution in cynomologus monkey at 0.3 mg/kg, po or 0.1 mg/kg, iv; format: ADME, organism-based, Macaca fascicularis; settings: cynomolgus monkey, in vivo
[26] = Half life in cynomologus monkey at 0.1 mg/kg, iv; format: ADME, organism-based, Macaca fascicularis; settings: cynomolgus monkey, in vivo
[27] = Oral bioavailability in cynomologus monkey at 0.3 mg/kg; format: ADME, organism-based, Macaca fascicularis; settings: cynomolgus monkey, in vivo
[28] = AUC in cynomologus monkey at 0.3 mg/kg, po; format: ADME, organism-based, Macaca fascicularis; design: dose 0.3 mg/kg, route po; settings: cynomolgus monkey, in vivo
[29] = Antitumor activity against human BR1077F cells xenografted in mouse assessed as tumor growth inhibition at 3 mg/kg, po QD treated as 5 days on and 2 days off regimen for 2 weeks starting from 26 days post tumor implantation; format: functional; settings: 336 h, read-out: TGI
[30] = AUC in mouse xenografted with human BR1077F cells at 3 mg/kg, po QD treated as 5 days on and 2 days off regimen for 2 weeks starting from 26 days post tumor implantation; format: ADME, organism-based; design: time 2 weeks, dose 3 mg/kg, route po; settings: in vivo
[31] = Volume of distribution in mouse at 3 mg/kg, po or 1 mg/kg, iv; format: ADME, organism-based; settings: in vivo
[32] = Half life in mouse at 1 mg/kg, iv; format: ADME, organism-based; settings: in vivo
[33] = Oral bioavailability in mouse at 3 mg/kg; format: ADME, organism-based; settings: in vivo
[34] = AUC in mouse at 3 mg/kg, po; format: ADME, organism-based; design: dose 3 mg/kg, route po; settings: in vivo
[35] = Half life in rat at 1 mg/kg, iv; format: ADME, organism-based; settings: in vivo
[36] = Oral bioavailability in rat at 5 mg/kg; format: ADME, organism-based; settings: in vivo
[37] = Half life in dog at 0.1 mg/kg, iv; format: ADME, organism-based, Canis lupus familiaris; settings: in vivo
[38] = Antitumor activity against human BR1077F cells xenografted in mouse assessed as tumor growth inhibition at 2 mg/kg, po QD treated as 5 days on and 2 days off regimen for 2 weeks starting from 26 days post tumor implantation; format: functional; settings: 336 h, read-out: TGI
[39] = AUC in mouse xenografted with human BR1077F cells at 2 mg/kg, po QD treated as 5 days on and 2 days off regimen for 2 weeks starting from 26 days post tumor implantation; format: ADME, organism-based; design: time 2 weeks, dose 2 mg/kg, route po; settings: in vivo
[40] = molecular target: Bromodomain-containing protein 2 (Homo sapiens, UniProt P25440); assay: Inhibition of BRD2 (unknown origin)
Bromodomain-containing protein 2, sequence (P25440 whole entry): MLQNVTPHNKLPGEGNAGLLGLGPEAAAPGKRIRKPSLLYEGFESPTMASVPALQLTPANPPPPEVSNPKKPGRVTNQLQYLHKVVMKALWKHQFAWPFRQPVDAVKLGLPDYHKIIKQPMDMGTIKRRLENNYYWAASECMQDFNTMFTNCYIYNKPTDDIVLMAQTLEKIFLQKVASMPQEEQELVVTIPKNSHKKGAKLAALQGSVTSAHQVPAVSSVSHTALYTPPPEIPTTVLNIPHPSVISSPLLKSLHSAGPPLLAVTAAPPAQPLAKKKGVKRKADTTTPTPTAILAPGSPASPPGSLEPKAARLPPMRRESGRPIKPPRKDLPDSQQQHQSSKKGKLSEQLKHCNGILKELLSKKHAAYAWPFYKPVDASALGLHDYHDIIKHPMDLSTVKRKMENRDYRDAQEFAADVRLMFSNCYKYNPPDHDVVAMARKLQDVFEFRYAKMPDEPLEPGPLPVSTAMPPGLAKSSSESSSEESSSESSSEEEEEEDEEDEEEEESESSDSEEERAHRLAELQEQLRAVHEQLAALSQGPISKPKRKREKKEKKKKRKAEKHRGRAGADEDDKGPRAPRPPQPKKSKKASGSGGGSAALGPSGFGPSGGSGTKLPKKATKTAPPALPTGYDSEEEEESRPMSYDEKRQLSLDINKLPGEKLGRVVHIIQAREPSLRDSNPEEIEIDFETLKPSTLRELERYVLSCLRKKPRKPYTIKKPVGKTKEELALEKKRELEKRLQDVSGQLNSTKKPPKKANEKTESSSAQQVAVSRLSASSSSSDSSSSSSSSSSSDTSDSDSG

[41] = molecular target: Bromodomain-containing protein 3 (Homo sapiens, UniProt Q15059); assay: Inhibition of BRD3 (unknown origin)
Bromodomain-containing protein 3, sequence (Q15059 whole entry): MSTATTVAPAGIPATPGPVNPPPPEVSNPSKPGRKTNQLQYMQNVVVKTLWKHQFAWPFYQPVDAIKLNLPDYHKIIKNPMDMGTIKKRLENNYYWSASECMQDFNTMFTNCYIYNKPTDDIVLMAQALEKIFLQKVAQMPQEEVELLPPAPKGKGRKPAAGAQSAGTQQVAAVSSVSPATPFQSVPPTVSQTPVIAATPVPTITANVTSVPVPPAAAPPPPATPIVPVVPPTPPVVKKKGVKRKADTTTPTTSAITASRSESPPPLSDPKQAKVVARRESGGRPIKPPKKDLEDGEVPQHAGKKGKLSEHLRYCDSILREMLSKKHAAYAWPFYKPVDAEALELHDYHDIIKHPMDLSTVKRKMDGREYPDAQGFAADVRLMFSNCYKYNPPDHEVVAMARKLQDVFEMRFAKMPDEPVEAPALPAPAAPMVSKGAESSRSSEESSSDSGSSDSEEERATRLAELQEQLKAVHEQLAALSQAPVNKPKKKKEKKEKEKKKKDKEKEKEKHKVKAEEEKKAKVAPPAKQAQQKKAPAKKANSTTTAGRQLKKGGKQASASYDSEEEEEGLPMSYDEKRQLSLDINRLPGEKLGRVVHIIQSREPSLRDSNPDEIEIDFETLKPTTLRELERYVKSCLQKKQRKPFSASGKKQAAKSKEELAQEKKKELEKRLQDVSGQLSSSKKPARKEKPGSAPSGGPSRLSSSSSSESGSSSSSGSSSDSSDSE

[42] = Drug metabolism in human hepatocytes assessed as glucuronides formation at 5 uM measured after 2 hrs by LC/UV/MS analysis; format: ADME, cell-based, Hepatocyte

IC50 [1]: 1.1 nM | IC50 [2]: 1.2 nM | half-life [4]: 56 min | half-life [5]: 35 min | half-life [6]: 25 min | half-life [7]: 35 min | half-life [8]: 30 min | half-life [9]: 120 min | half-life [10]: 6 min | half-life [11]: 120 min | half-life [12]: 120 min | half-life [13]: 120 min | Ratio [14]: 1.2
Structure (SMILES): [2H]C([2H])([2H])c1nnn(C)c1-c1cnc2c3ccc(C(C)(C)O)c(Cl)c3n([C@H](c3ccccc3)C3CCOCC3)c2c1
IC50 [3]: 7 nM

IC50 [1]: 4 nM | IC50 [2]: 9 nM
Structure (SMILES): Cc1nnn(C)c1-c1cnc2c3ccc(C(C)C)cc3n([C@H](c3ccccc3)C3CCOCC3)c2c1
IC50 [3]: 39 nM

IC50 [1]: 0.9 nM | IC50 [2]: 1.2 nM | half-life [4]: 41 min | half-life [5]: 44 min | half-life [6]: 10 min | half-life [7]: 11 min | half-life [8]: 12 min | Ratio [14]: 7.3
Structure (SMILES): Cc1nnn(C)c1-c1cnc2c3ccc(S(C)(=O)=O)cc3n([C@H](c3ccccc3)C3CCOCC3)c2c1
IC50 [3]: 5 nM

IC50 [1]: 1 nM | IC50 [2]: 1.5 nM | half-life [4]: 67 min | half-life [5]: 38 min | half-life [6]: 42 min | half-life [7]: 69 min | half-life [8]: 29 min | half-life [9]: 120 min | half-life [10]: 6 min | half-life [11]: 120 min | half-life [12]: 120 min | half-life [13]: 120 min | Ratio [14]: 1.4
Structure (SMILES): [2H]C([2H])([2H])c1nnn(C)c1-c1cnc2c3ccc(C(C)(C)O)c(F)c3n([C@H](c3ccccc3)C3CCOCC3)c2c1
IC50 [3]: 5 nM

IC50 [2]: 0.7 nM | half-life [4]: 33 min | half-life [5]: 36 min | half-life [6]: 24 min | half-life [7]: 20 min | half-life [8]: 10 min | half-life [9]: 115 min | half-life [10]: 61 min | half-life [11]: 120 min | half-life [12]: 120 min | half-life [13]: 120 min | Ratio [14]: 2.6 | Drug metabolism [15]: Metabolite_Detected | Drug metabolism [16]: Metabolite_Detected | Vd [17]: 1.9 L/kg | half-life [18]: 114 min | AUC [19]: 18 µM·h | Vd [20]: 4.3 L/kg | AUC [21]: 2 µM·h | Vd [22]: 5.3 L/kg | bioavailability [23]: 59% | AUC [24]: 0.41 µM·h | Vd [25]: 4.2 L/kg | half-life [26]: 120 min | bioavailability [27]: 16% | AUC [28]: 0.085 µM·h | AUC at 336 h [30]: 2.6 µM·h
Structure (SMILES): Cc1nnn(C)c1-c1cnc2c3ccc(C(C)(C)O)cc3n([C@H](c3ccccc3)C3CCOCC3)c2c1 [EZOBRESIB]
IC50 [3]: 3.6 nM | inhibition in vivo at 3 mg/kg [29]: 99%

IC50 [1]: 0.8 nM | IC50 [2]: 1 nM | half-life [4]: 9 min | half-life [5]: 13 min | half-life [6]: 5 min | half-life [7]: 9 min | half-life [8]: 1 min | half-life [11]: 120 min | Ratio [14]: 1.3
Structure (SMILES): COc1cc2c3ncc(-c4c(C)nnn4C)cc3n([C@H](c3ccccc3)C3CCOCC3)c2cc1C(C)(C)O
IC50 [3]: 4 nM

IC50 [2]: 2 nM | half-life [4]: 52 min | half-life [5]: 46 min | half-life [6]: 41 min | half-life [7]: 32 min | half-life [8]: 10 min | half-life [9]: 120 min | half-life [10]: 120 min | half-life [11]: 120 min | t1/2 ([12]; microsomes, 50 min): 120 min | half-life [13]: 120 min | Ratio [14]: 1.8 | Vd [31]: 1.4 L/kg | half-life [32]: 204 min | bioavailability [33]: 100% | AUC [34]: 25 µM·h | Vd [20]: 2.9 L/kg | half-life [35]: 246 min | bioavailability [36]: 74% | AUC [21]: 6.6 µM·h | Vd [22]: 5.8 L/kg | half-life [37]: 456 min | bioavailability [23]: 73% | AUC [24]: 0.55 µM·h | Vd [25]: 1.3 L/kg | half-life [26]: 240 min | bioavailability [27]: 85% | AUC [28]: 1.9 µM·h | AUC at 336 h [39]: 4.8 µM·h | IC50 [40]: 0.2 nM | IC50 [41]: 1.6 nM | Drug metabolism [42]: Metabolite_Notdetected
Structure (SMILES): [2H]C([2H])([2H])c1nnn(C)c1-c1cnc2c3cc(F)c(C(C)(C)O)cc3n([C@H](c3ccccc3)C3CCOCC3)c2c1
IC50 [3]: 6 nM | inhibition in vivo at 2 mg/kg [38]: 88%
